PMC12152171, “Dual-mode recognition of tRNA^Pro isoacceptors by Toxoplasma gondii Prolyl-tRNA synthetase” (EMBO Reports, 2025)
pIC50: −log10 of the molar value. Like-named read-outs stand apart in the source and are kept apart here.

Experiments:
[1] = target: T1, Toxoplasma gondii prolyl-tRNA synthetase (TgProRS) (Toxoplasma gondii, UniProt S8G8I1); experiment: [3H]-proline aminoacylation inhibition assay with cytosolic tRNA(Pro) (TgtRNAn^Pro); IC50 […] with apicoplast TgtRNAa^Pro; type: biochemical
T1 construct: gene TGME49_219850; lacking OTS and ProXp-ala (amino acid residues 1–333 removed), N-terminal His10 tag

[2] = target: T1, Toxoplasma gondii prolyl-tRNA synthetase (TgProRS); experiment: as above; type: biochemical; remark: listed apart in the source

T1 sequence (S8G8I1 entry or part of it): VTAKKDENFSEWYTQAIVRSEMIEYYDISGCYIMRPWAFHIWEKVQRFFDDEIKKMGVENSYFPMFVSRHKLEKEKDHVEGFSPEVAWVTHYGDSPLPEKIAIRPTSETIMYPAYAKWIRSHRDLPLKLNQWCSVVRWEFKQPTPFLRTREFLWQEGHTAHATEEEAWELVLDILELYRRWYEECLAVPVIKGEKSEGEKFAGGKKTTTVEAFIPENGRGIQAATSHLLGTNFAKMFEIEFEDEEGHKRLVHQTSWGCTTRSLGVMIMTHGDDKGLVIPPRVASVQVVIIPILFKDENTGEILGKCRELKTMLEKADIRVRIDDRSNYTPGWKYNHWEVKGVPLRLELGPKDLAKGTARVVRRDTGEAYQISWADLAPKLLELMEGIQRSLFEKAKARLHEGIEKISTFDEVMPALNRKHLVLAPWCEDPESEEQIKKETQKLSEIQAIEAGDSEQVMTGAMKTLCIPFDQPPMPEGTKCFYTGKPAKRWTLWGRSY

Row | SMILES | pIC50 [1] | pIC50 [2]
1 | O=C(O)[C@@H]1CCN1 [A2C, Azetidine-2-carboxylic acid] | 2.89 | –
2 | O=C(C[C@H]1NCCC[C@@H]1O)Cn1cnc2cc(Br)c(Cl)cc2c1=O (racemic) [HF, Halofuginone] | – | 8.30
